# Experimental data taken from patent US11266643B2, “Triaryl compounds for treatment of PD-L1 diseases” (CHEMOCENTRYX, INC., priority 2019, dated 2022).
# Biological target: human PD-L1 (Homo sapiens (Human), UniProt Q9NZQ7)
# Assay: Enzyme-Linked Immunosorbent Assay (ELISA), PD-1/PD-L1 binding
# Conditions: PD-1/PD-L1 ELISA, human PD-L1 coated plates, Table 1
# Procedure, shortened: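 Plates coated with […] human PD-L1 overnight at 4° C, blocked, then 1:5 serial compound dilutions added with human PD-1 […] 0.31 μg/mL for 1 h at 37° C. Bound PD-1 detected with streptavidin-HRP and TMB (20 min, 37° C); absorbance read at 450 nm after H2SO4 stop.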
# Chain of human PD-L1 (Q9NZQ7 19-239): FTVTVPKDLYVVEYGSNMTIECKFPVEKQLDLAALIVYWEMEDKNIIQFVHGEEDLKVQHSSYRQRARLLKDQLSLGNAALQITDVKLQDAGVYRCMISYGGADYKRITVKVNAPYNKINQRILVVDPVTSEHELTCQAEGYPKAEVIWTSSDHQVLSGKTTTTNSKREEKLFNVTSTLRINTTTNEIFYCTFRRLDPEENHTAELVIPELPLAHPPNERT
row,Structure (SMILES),IC50
1,COc1cc(-c2cccc(-c3cccc(NC(=O)c4cncn(C)c4=O)c3C)c2C)cc(F)c1CNC[C@@H]1CCC(=O)N1 [Example 1.211],< 0.01 µM
2,COc1cc(-c2cccc(-c3cccc(Nc4nccc5nccnc45)c3C)c2C)cc(F)c1CN[C@H](C)CO [Example 1.207],< 0.01 µM
3,COc1cc(-c2cccc(-c3cccc(NC(=O)c4c[nH]c(=O)n(C)c4=O)c3C)c2C)cc(F)c1CN(C)CC(N)=O [Example 1.251],0.01 to 1 µM
4,COc1cc(-c2cccc(-c3cccc(Nc4nccc5cccnc45)c3C)c2C)cc(F)c1CN1CC(C(=O)O)C1 [Example 1.318],0.01 to 1 µM
5,COc1cc(-c2cccc(-c3cccc(NC(=O)N4CCNCC4)c3C)c2C)cc(F)c1CN [Example 1.392],0.01 to 1 µM
6,COc1cc(-c2cccc(-c3cccc(NC(=O)c4c[nH]c(=O)n(C)c4=O)c3C)c2C)cc(F)c1CN[C@H]1CCC(=O)NC1 [Example 1.230],< 0.01 µM
7,COc1cc(-c2cccc(-c3cccc(NC(=O)c4cccn(C)c4=O)c3C)c2C)cc(F)c1CN1CC(C(=O)O)C1 [Example 1.301],< 0.01 µM
8,COc1cc(-c2cccc(-c3cccc(NC(=O)c4ccc(N)nc4)c3C)c2C)cc(F)c1CNCCO [Example 1.390],1 to 10 µM
9,COc1cc(-c2cccc(-c3cccc(NC(=O)c4c[nH]c(=O)n(C)c4=O)c3C)c2C)cc(F)c1CNCC(=O)O [Example 1.261],< 0.01 µM
10,COc1cc(-c2cccc(-c3cccc(NC(=O)c4c[nH]c(=O)n(C)c4=O)c3C)c2C)cc(F)c1CNC1CNC1 [Example 1.212],0.01 to 1 µM
11,COc1cc(-c2cccc(-c3cccc(NC(=O)c4ccccn4)c3C)c2C)cc(F)c1CN1CCOC[C@@H]1CO [Example 1.372],0.01 to 1 µM
12,COc1cc(-c2cccc(-c3cccc(NC(=O)c4c[nH]c(=O)n(C)c4=O)c3C)c2C)cc(F)c1CN(C)CCC(=O)O [Example 1.247],0.01 to 1 µM
13,COc1cc(-c2cccc(-c3cccc(NC(=O)c4c[nH]c(=O)n(C)c4=O)c3C)c2C)cc(F)c1CN1CCC2(C1)NC(=O)NC2=O (stereo not drawn) [Example 1.257],0.01 to 1 µM
14,COc1cc(-c2cccc(-c3cccc(NC(=O)c4cccn(C)c4=O)c3C)c2C)cc(F)c1CNCC(C)(C)O [Example 1.281],< 0.01 µM
15,COc1cc(-c2cccc(-c3cccc(NC(=O)c4c[nH]c(=O)n(C)c4=O)c3C)c2C)cc(F)c1CNC(C)C [Example 1.236],< 0.01 µM
16,COc1cc(-c2cccc(-c3cccc(Nc4cccc5ccn(C)c(=O)c45)c3C)c2C)cc(F)c1CN1CC(C(=O)O)C1 [Example 1.284],0.01 to 1 µM
17,COc1cc(-c2cccc(-c3cccc(NC(=O)c4cnccn4)c3C)c2C)cc(F)c1CN1CC(C(=O)O)C1 [Example 1.357],< 0.01 µM
18,COc1cc(-c2cccc(-c3cccc(NC(=O)c4cnc(C)[nH]c4=O)c3C)c2C)cc(F)c1CN1CC(C(=O)O)C1 [Example 1.272],0.01 to 1 µM
19,COc1cc(-c2cccc(-c3cccc(NC(=O)c4cncn(C)c4=O)c3C)c2C)cc(F)c1CN[C@@H]1CCC[C@@H]1O [Example 1.199],< 0.01 µM
20,COc1cc(-c2cccc(-c3cccc(NC(=O)c4cccnc4O)c3C)c2C)cc(F)c1CN [Example 1.297],0.01 to 1 µM
21,COc1cc(-c2cccc(-c3cccc(NC(=O)c4cncn(C)c4=O)c3C)c2C)cc(F)c1CNCCS(=O)(=O)O [Example 1.260],< 0.01 µM
22,COc1cc(-c2cccc(-c3cccc(Nc4cccc5cncnc45)c3C)c2C)cc(F)c1CN1CC(C(=O)O)C1 [Example 1.246],0.01 to 1 µM

# Same assay, conditions: human PD-1/PD-L1 ELISA, plates coated with human PD-L1
row,Structure (SMILES),IC50
1,COc1cc(-c2cccc(-c3cccc(NC(=O)c4cn(C)c(=O)n(C)c4=O)c3C)c2C)cc(F)c1CNC(C)(C)CO [Example 1.133],< 0.01 µM
2,COc1cc(-c2cccc(-c3cccc(NC(=O)c4cn(C)c(=O)n(C)c4=O)c3C)c2C)cc(F)c1CNCCC(N)=O [Example 1.114],< 0.01 µM
3,COc1cc(-c2cccc(-c3cccc(NC(=O)c4cncn(C)c4=O)c3C)c2C)cc(F)c1CNCCN1CCCC1=O [Example 1.099],< 0.01 µM
4,COc1cc(-c2cccc(-c3cccc(NC(=O)c4cncn(C)c4=O)c3C)c2C)cc(F)c1CN(C)C[C@H]1CCC(=O)N1 [Example 1.132],0.01 to 1 µM
5,COc1cc(-c2cccc(-c3cccc(NC(=O)c4cn(C)c(=O)n(C)c4=O)c3C)c2C)cc(F)c1CN[C@@H]1CCC[C@@H]1O [Example 1.178],< 0.01 µM
6,COc1cc(-c2cccc(-c3cccc(Nc4nccc5nccnc45)c3C)c2C)cc(F)c1CNC[C@H]1CCC(=O)N1 [Example 1.159],< 0.01 µM
7,COc1cc(-c2cccc(-c3cccc(NC(=O)c4c[nH]c(=O)n(C)c4=O)c3C)c2C)cc(F)c1CNCC[C@@H]1CCC(=O)N1 [Example 1.109],< 0.01 µM
8,COc1cc(-c2cccc(-c3cccc(NC(=O)c4cn(C)c(=O)n(C)c4=O)c3C)c2C)cc(F)c1CNC1CCOCC1 [Example 1.052],< 0.01 µM
9,COc1cc(-c2cccc(-c3cccc(NC(=O)c4cncn(C)c4=O)c3C)c2C)cc(F)c1CNC1CCNC(=O)C1 (stereo not drawn) [Example 1.103],< 0.01 µM
10,COc1cc(-c2cccc(-c3cccc(NC(=O)c4cn(C)c(=O)n(C)c4=O)c3C)c2C)cc(F)c1CNCC1CCNC(=O)C1 (stereo not drawn) [Example 1.067],< 0.01 µM
11,COc1cc(-c2cccc(-c3cccc(NC(=O)c4c[nH]c(=O)n(C)c4=O)c3C)c2C)cc(F)c1CNCCC(N)=O [Example 1.128],< 0.01 µM
12,COc1cc(-c2cccc(-c3cccc(NC(=O)c4nn(C)c(=O)n(C)c4=O)c3C)c2C)cc(F)c1CNC[C@@H]1CCC(=O)N1 [Example 1.104],< 0.01 µM
13,COc1cc(-c2cccc(-c3cccc(NC(=O)c4cccn(C)c4=O)c3C)c2C)cc(F)c1CNCc1c[nH]c(=O)[nH]c1=O [Example 1.097],< 0.01 µM
14,COc1cc(-c2cccc(-c3cccc(Nc4nccc5nccnc45)c3C)c2C)cc(F)c1CNC(C)C [Example 1.181],< 0.01 µM
15,COc1cc(-c2cccc(-c3cccc(Nc4nccc5nccnc45)c3Cl)c2C)cc(F)c1CN[C@@H]1CNC(=O)C1 [Example 1.023],0.01 to 1 µM
16,COc1cc(-c2cccc(-c3cccc(NC(=O)c4cccn(C)c4=O)c3C)c2C)cc(F)c1CN[C@@H]1CNC(=O)C1 [Example 1.171],< 0.01 µM
17,COc1cc(-c2cccc(-c3cccc(NC(=O)c4cn(C)c(=O)n(C)c4=O)c3C)c2C)cc(F)c1CN[C@@H]1COCC[C@H]1O [Example 1.002],< 0.01 µM
18,COc1cc(-c2cccc(-c3cccc(NC(=O)c4cn(C)c(=O)n(C)c4=O)c3C)c2C)cc(F)c1CN(C)[C@H]1CNC(=O)C1 [Example 1.126],0.01 to 1 µM
19,COc1cc(-c2cccc(-c3cccc(NC(=O)c4cccn(C)c4=O)c3C)c2C)cc(F)c1CNC1CCOC1 (stereo not drawn) [Example 1.168],< 0.01 µM
20,COc1cc(-c2cccc(-c3cccc(NC(=O)c4ccc(CNCCO)cn4)c3C)c2C)cc(F)c1CNCCCC(=O)O [Example 1.401],< 0.01 µM
21,COc1cc(-c2cccc(-c3cccc(NC(=O)c4nn(C)c(=O)n(C)c4=O)c3C)c2C)cc(F)c1CNC[C@@H]1CCC(=O)N1C [Example 1.056],< 0.01 µM
22,COc1cc(-c2cccc(-c3cccc(Nc4nccc5nccnc45)c3C)c2C)cc(F)c1CNC1CCOCC1 [Example 1.123],< 0.01 µM
23,COc1cc(-c2cccc(-c3cccc(NC(=O)c4nn(C)c(=O)n(C)c4=O)c3C)c2C)cc(F)c1CNC(C)C [Example 1.065],< 0.01 µM
24,COc1cc(-c2cccc(-c3cccc(NC(=O)c4c[nH]c(=O)n(C)c4=O)c3C)c2C)cc(F)c1CNCCC1CCC(=O)N1 (stereo not drawn) [Example 1.141],< 0.01 µM
25,COc1cc(-c2cccc(-c3cccc(NC(=O)c4c[nH]c(=O)n(C)c4=O)c3C)c2C)cc(F)c1CN1CCNC(=O)C1 [Example 1.183],1 to 10 µM
26,COc1cc(-c2cccc(-c3cccc(NC(=O)c4cn(C)c(=O)n(C)c4=O)c3C)c2Cl)cc(F)c1CN[C@@H]1CCOC[C@@H]1O [Example 1.017],< 0.01 µM

# Same assay, conditions: plate-coated human PD-L1, biotinylated Human PD-1, absorbance at 450 nm
row,Structure (SMILES),IC50
1,COc1cc(-c2cccc(-c3cccc(NC(=O)c4cn(C)c(=O)n(C)c4=O)c3Cl)c2Cl)cc(F)c1CN[C@H]1CCOC[C@H]1OC [Example 2.025],< 0.01 µM
2,COc1cc(-c2cccc(-c3cccc(NC(=O)c4cn(C)c(=O)n(C)c4=O)c3C)c2Cl)cc(F)c1CNC(C)(C)CO [Example 2.057],< 0.01 µM
3,COc1cc(-c2cccc(-c3cccc(NC(=O)c4cn(C)c(=O)n(C)c4=O)c3C)c2Cl)cc(F)c1CNC1CCOCC1 [Example 2.083],< 0.01 µM
4,CCOc1cc(-c2cccc(-c3cccc(NC(=O)c4cn(C)c(=O)n(C)c4=O)c3C)c2Cl)ccc1CN[C@@H]1CCOC[C@@H]1O [Example 2.048],< 0.01 µM
5,COc1cc(-c2cccc(-c3cccc(NC(=O)c4cn(C)c(=O)n(C)c4=O)c3C)c2Cl)cc(F)c1CN[C@H]1CCC[C@@H]1O [Example 2.060],< 0.01 µM
6,COc1cc(-c2cccc(-c3cccc(NC(=O)c4cn(C)c(=O)n(C)c4=O)c3C)c2Cl)cc(F)c1CN1CCCC[C@H]1C(=O)O [Example 2.047],< 0.01 µM
7,COc1cc(-c2cccc(-c3cccc(NC(=O)c4cn(C)c(=O)n(C)c4=O)c3C)c2Cl)cc(F)c1CN(C)[C@@H]1CNC(=O)C1 [Example 2.072],< 0.01 µM
8,COc1cc(-c2cccc(-c3cccc(NC(=O)c4cn(C)c(=O)n(C)c4=O)c3C)c2Cl)cc(F)c1CN[C@@H]1COC[C@H]1O [Example 2.090],< 0.01 µM
9,COc1cc(-c2cccc(-c3cccc(NC(=O)c4cn(C)c(=O)n(C)c4=O)c3C)c2Cl)cc(F)c1CN1CCC2(CCNC2=O)CC1 [Example 2.006],0.01 to 1 µM
10,COc1cc(-c2cccc(-c3cccc(NC(=O)c4cn(C)c(=O)n(C)c4=O)c3C)c2Cl)cc(F)c1CN[C@@H]1COCC[C@H]1O [Example 2.086],< 0.01 µM
11,COc1cc(-c2cccc(-c3cccc(NC(=O)c4cn(C)c(=O)n(C)c4=O)c3C)c2Cl)cc(F)c1CN(C)[C@H]1CNC(=O)C1 [Example 2.061],0.01 to 1 µM
12,COc1cc(-c2cccc(-c3cccc(Nc4nccc5nccnc45)c3C)c2Cl)cc(F)c1CN[C@H]1CCOC[C@H]1O [Example 2.114],< 0.01 µM
